# Measurements as given in patent publication US7414041B2 (Trustees Of Tufts College, priority 1991, dated 2008).
# Like-named read-outs stand apart in the source and are kept apart here.
# Key:
# [1] = target: T1, TET proteins responsible for tetracycline efflux (Class B tetracycline resistance determinant, strain D1-209) (Escherichia coli, UniProt P02980); assay: biochemical; set-up: species or system E. coli
# T1 construct: Everted vesicles, to which the TET proteins responsible for tetracycline efflux are attached; endogenous in cells; host or cells: E. coli strain D1-209 (everted membrane vesicles)
# [2] = system: E. coli Tc^s (MI 300-225); assay: susceptibility testing MIC/MLC, drug alone; assay type: cell-based; conditions: Tc^s
# [3] = system: E. coli Class A Tc^r (DI-299); assay type: cell-based
# E. faecalis (Tet M) = conditions: E. faecalis (Class M)
# [4] = system: E. faecalis Tc^r (L) (ATCC9790r/Tet L); assay type: cell-based; conditions: for MLC: E. faecalis Tet L; for MIC: Tc^r (L)
# [5] = system: E. faecalis Tc^r (M) (ATCC9790r/Tet M); assay type: cell-based
# S. aureus Tc^s (RN450) = assay: susceptibility testing MIC/MLC, drug alone; assay type: cell-based; conditions: for MLC: kills 99.9%
# [6] = system: E. faecalis Tc^s (ATCC9790r); assay: susceptibility testing MIC/MLC, drug alone; assay type: cell-based
# E. coli ML308 = assay: MIC of tetracycline susceptible strains, C5 esters; assay type: cell-based; conditions: Escherichia coli; E. coli ML308, alone; read-out: MIC
# E. coli D1-299 (Tet A) = assay type: cell-based;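 also: E. coli at roughly 5×10^5 cells/ml in L broth, analog and doxycycline alone or mixed in two-fold dilutions from 50 to under 1 µg/ml, 18 h at 37 °C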
# E. faecalis ATCC 9790 = assay: MIC of tetracycline susceptible strains, C5 esters; assay type: cell-based; conditions: Enterococcus faecalis, ATCC9790; E. faecalis ATCC 9790, alone; read-out: MIC
# E. faecalis 211 (Tet M) = assay: MIC/MLC chart, analog with and without doxycycline; assay type: cell-based;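 also: broth checkerboard of two-fold drug dilutions, alone and mixed with doxycycline, bacteria near 5×10^5 cells/ml, 18 h incubation at 37 °C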
# S. aureus 450 = assay: MIC of tetracycline susceptible strains, C5 esters; assay type: cell-based; conditions: Staphylococcus aureus; S. aureus 450, alone; read-out: MIC
# [7] = system: E. coli Class β Tc^r (DI-209); assay type: cell-based
# S. aureus Tc^r (RN4250) = assay type: cell-based
# [8] = analog .195 μg/ml + doxycycline 1.56 μg/ml
# [9] = analog .195 μg/ml + doxycycline 3.12 μg/ml
# [10] = analog .195 μg/ml + doxycycline 6.25 μg/ml
# [11] = analog .39 μg/ml + doxycycline 1.56 μg/ml
# [12] = analog .39 μg/ml + doxycycline 3.12 μg/ml
# [13] = analog alone .195 μg/ml (Analog Control)
# [14] = analog alone .39 μg/ml (Analog Control)
# [15] = uptake at 2.5 minutes, about 4 μM 3H-tetracycline, read-out: IC50
# T1 sequence (P02980 whole entry): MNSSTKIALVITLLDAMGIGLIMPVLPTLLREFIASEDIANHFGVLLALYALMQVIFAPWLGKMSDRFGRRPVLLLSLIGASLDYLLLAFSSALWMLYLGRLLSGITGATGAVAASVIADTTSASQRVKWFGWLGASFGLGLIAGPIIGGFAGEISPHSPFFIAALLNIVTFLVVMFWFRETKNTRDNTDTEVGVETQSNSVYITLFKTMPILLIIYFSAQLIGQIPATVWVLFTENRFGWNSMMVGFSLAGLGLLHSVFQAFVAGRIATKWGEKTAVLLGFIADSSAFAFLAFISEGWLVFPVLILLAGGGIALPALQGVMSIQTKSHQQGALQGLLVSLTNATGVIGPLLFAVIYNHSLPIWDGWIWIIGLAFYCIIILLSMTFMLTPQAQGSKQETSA
compound,measurement,setting,value
CC1c2cccc(O)c2C(=O)C2=C(O)C3(O)C(=O)C(C(N)=O)=C(O)[C@@H](N(C)C)C3[C@@H](OC(=O)CCC(=O)O)C21 (some centres unmarked) [Cmpd 6],IC50,[1],2 µM
CCCCCCCC(=O)O[C@H]1C2C(=C(O)C3(O)C(=O)C(C(N)=O)=C(O)[C@@H](N(C)C)C13)C(=O)c1c(O)cccc1C2C (some centres unmarked) [Cmpd 4],IC50,[1],9.3 µM
6-deoxy-13-(cyclohexyl mercapto) tetracycline,MIC,[2]; 1st column,60 ± 10 µg
same,MIC,[2]; 2nd column,120 µg
same,MIC,[3]; 1st column,100 ± 0.26 µg
same,MIC,[3]; 2nd column,>200 µg
same,synergistic activity with tetracycline,E. faecalis (Tet M),"little, if any synergistic activity"
same,MLC,[4],8 ± 2 µg/mL
same,MIC,[4]; 1st column,1.6 ± 0.6 µg
same,MIC,[5]; 1st column,2.6 ± 0.6 µg
same,MIC,S. aureus Tc^s (RN450),2.5 ± 1.25 µg
same,MLC,S. aureus Tc^s (RN450),10 ± 5 µg
same,MIC,[6]; 1st column,1.26 ± 0.26 µg
same,MIC,[6]; 2nd column,8 µg
"CCC(=O)OC1C2C(=C(O)C3(O)C(=O)C(C(N)=O)=C(O)C(N(C)C)C13)C(=O)c1c(O)cccc1C2CSC1CCCC1 (centres unmarked) [Cmpd 5, 13-cyclopentylthio-5-proprionate-6-deoxy tetracycline]",MIC,E. coli ML308,20 µg/mL
same,MIC/MLC chart: growth or killing,E. coli D1-299 (Tet A); analog 1.56 μg/ml + doxycycline 1.55 μg/ml,+
same,MIC/MLC chart: growth or killing,E. coli D1-299 (Tet A); analog 1.56 μg/ml + doxycycline 3.1 μg/ml,+
same,MIC/MLC chart: growth or killing,E. coli D1-299 (Tet A); analog 1.56 μg/ml + doxycycline 6.2 μg/ml,+
same,MIC/MLC chart: growth or killing,E. coli D1-299 (Tet A); analog 3.12 μg/ml + doxycycline 1.53 μg/ml,+
same,MIC/MLC chart: growth or killing,E. coli D1-299 (Tet A); analog 3.12 μg/ml + doxycycline 3.05 μg/ml,+
same,MIC/MLC chart: growth or killing,E. coli D1-299 (Tet A); analog 3.12 μg/ml + doxycycline 6.1 μg/ml,+
same,MIC/MLC chart: growth or killing,E. coli D1-299 (Tet A); analog 6.25 μg/ml + doxycycline 3.0 μg/ml,+
same,MIC/MLC chart: growth or killing,E. coli D1-299 (Tet A); analog 6.25 μg/ml + doxycycline […],+
same,MIC/MLC chart: growth or killing,E. coli D1-299 (Tet A); analog 12.5 μg/ml + doxycycline 2.8 μg/ml,+
same,MIC/MLC chart: growth or killing,E. coli D1-299 (Tet A); analog 12.5 μg/ml + doxycycline […],+
same,MIC/MLC chart: growth or killing,E. coli D1-299 (Tet A); analog 25 μg/ml + doxycycline 2.4 μg/ml,+
same,MIC/MLC chart: growth or killing,E. coli D1-299 (Tet A); analog 25 μg/ml + doxycycline […],+
same,MIC/MLC chart: growth or killing,E. coli D1-299 (Tet A); analog 50 μg/ml + doxycycline 1.56 μg/ml,+
same,MIC/MLC chart: growth or killing,E. coli D1-299 (Tet A); analog 50 μg/ml + doxycycline .78 μg/ml,+
same,MIC/MLC chart: growth or killing,E. coli D1-299 (Tet A); [8],+
same,MIC/MLC chart: growth or killing,E. coli D1-299 (Tet A); [9],+
same,MIC/MLC chart: growth or killing,E. coli D1-299 (Tet A); [10],+
same,MIC/MLC chart: growth or killing,E. coli D1-299 (Tet A); analog .195 μg/ml + doxycycline 12.5 μg/ml,+
same,MIC/MLC chart: growth or killing,E. coli D1-299 (Tet A); analog .195 μg/ml + doxycycline 25.0 μg/ml,+
same,MIC/MLC chart: growth or killing,E. coli D1-299 (Tet A); [11],+
same,MIC/MLC chart: growth or killing,E. coli D1-299 (Tet A); [12],+
same,MIC/MLC chart: growth or killing,E. coli D1-299 (Tet A); analog .39 μg/ml + doxycycline 6.25 μg/ml,+
same,MIC/MLC chart: growth or killing,E. coli D1-299 (Tet A); analog .39 μg/ml + doxycycline 12.5 μg/ml,+
same,MIC/MLC chart: growth or killing,E. coli D1-299 (Tet A); analog .39 μg/ml + doxycycline 24.9 μg/ml,↓
same,MIC/MLC chart: growth or killing,E. coli D1-299 (Tet A); analog .78 μg/ml + doxycycline 1.56 μg/ml,+
same,MIC/MLC chart: growth or killing,E. coli D1-299 (Tet A); analog .78 μg/ml + doxycycline 3.12 μg/ml,+
same,MIC/MLC chart: growth or killing,E. coli D1-299 (Tet A); analog .78 μg/ml + doxycycline 6.23 μg/ml,+
same,MIC/MLC chart: growth or killing,E. coli D1-299 (Tet A); analog .78 μg/ml + doxycycline 12.4 μg/ml,◯
same,MIC/MLC chart: growth or killing,E. coli D1-299 (Tet A); analog alone 1.56 μg/ml (Analog Control),+
same,MIC/MLC chart: growth or killing,E. coli D1-299 (Tet A); analog alone 3.12 μg/ml (Analog Control),+
same,MIC/MLC chart: growth or killing,E. coli D1-299 (Tet A); analog alone 6.25 μg/ml (Analog Control),+
same,MIC/MLC chart: growth or killing,E. coli D1-299 (Tet A); analog alone 12.5 μg/ml (Analog Control),+
same,MIC/MLC chart: growth or killing,E. coli D1-299 (Tet A); analog alone 25.0 μg/ml (Analog Control),+
same,MIC/MLC chart: growth or killing,E. coli D1-299 (Tet A); analog alone 50.00 μg/ml (Analog Control),+
same,MIC/MLC chart: growth or killing,E. coli D1-299 (Tet A); [13],+
same,MIC/MLC chart: growth or killing,E. coli D1-299 (Tet A); [14],+
same,MIC/MLC chart: growth or killing,E. coli D1-299 (Tet A); analog alone .78 μg/ml (Analog Control),+
same,MLC in combination,E. coli D1-299 (Tet A); with 5.9 μg/ml doxycycline (Chart 8A),6.25 µg/mL
same,MIC,E. faecalis ATCC 9790,0.4 µg/mL
same,IC50,[1],3.3 µM
same,MIC/MLC chart: growth or killing,E. faecalis 211 (Tet M); [8],+
same,MIC/MLC chart: growth or killing,E. faecalis 211 (Tet M); [9],+
same,MIC/MLC chart: growth or killing,E. faecalis 211 (Tet M); [10],+
same,MIC/MLC chart: growth or killing,E. faecalis 211 (Tet M); [11],◯
same,MIC/MLC chart: growth or killing,E. faecalis 211 (Tet M); [12],◯
same,MIC/MLC chart: growth or killing,E. faecalis 211 (Tet M); [13],+
same,MIC/MLC chart: growth or killing,E. faecalis 211 (Tet M); [14],◯
same,MIC,S. aureus 450,0.4 µg/mL
CN(C)[C@@H]1C(O)=C(C(N)=O)C(=O)C2(O)C(O)=C3C(=O)c4c(O)cccc4C(CSC4CCCC4)C3[C@H](OC(=O)C3CCCCC3)C12 (some centres unmarked) [Cmpd 9],IC50,[1],> 30 µM
CC1c2cccc(O)c2C(=O)C2=C(O)C3(O)C(=O)C(C(N)=O)=C(O)[C@@H](N(C)C)C3[C@@H](OCCCN)C21 (some centres unmarked) [Cmpd 7],IC50,[1]; [15],6.4 µM
CN(C)[C@@H]1C(O)=C(C(N)=O)C(=O)C2(O)C(O)=C3C(=O)c4c(O)cccc4C(CSC4CCCC4)C3[C@H](OC(=O)C3CCCC3)C12 (some centres unmarked) [Cmpd 10],IC50,[1]; [15],> 30 µM
6-deoxy-13-(benzyl mercapto) tetracycline,MIC,[2]; 1st column,16 ± 6 µg
same,MIC,[2]; 2nd column,26 ± 6 µg
same,MIC,[7]; 1st column,30 ± 0.26 µg
same,MIC,[7]; 2nd column,60 ± 10 µg
same,MIC,[3]; 1st column,46 ± 20 µg
same,MIC,[3]; 2nd column,160 ± 60 µg
same,synergistic activity with tetracycline,E. faecalis (Tet M),"little, if any synergistic activity"
same,MLC,[4],8 ± 2 µg/mL
same,MIC,[4]; 1st column,0.76 ± 0.26 µg
same,MIC,[5]; 1st column,3.6 ± 1 µg
same,MIC,S. aureus Tc^s (RN450),0.2 ± 0.1 µg
same,MLC,S. aureus Tc^s (RN450),10 ± 2 µg
same,MIC,[6]; 1st column,0.6 ± 0.25 µg
same,MIC,[6]; 2nd column,8 ± 0.26 µg
"C=C1c2cccc(O)c2C(=O)C2=C(O)C3(O)C(=O)C(C(N)=O)=C(O)C(N(C)C)C3C(OC(=O)C3CC3)C12 (centres unmarked) [Cmpd 11, 5 cyclopropanoate methacycline]",IC50,[1],9.4 µM
CC(C)SCC1c2cccc(O)c2C(=O)C2=C(O)C3(O)C(=O)C(C(N)=O)=C(O)C(N(C)C)C3C(O)C21 (centres unmarked) [Isopropyl],MIC,[2]; 1st column,22 ± 2 µg
same,MIC,[2]; 2nd column,60 µg
same,MIC,[7]; 1st column,35 ± 6 µg
same,MIC,[7]; 2nd column,46 ± 16 µg
same,MIC,[3]; 1st column,46 ± 6 µg
same,MIC,[3]; 2nd column,60 µg
same,MIC,[4]; 1st column,3 ± 1 µg
same,MIC,[4]; 2nd column,100 ± 0.25 µg
same,MIC,S. aureus Tc^r (RN4250); Tc^r RN4250,4.5 ± 0.5 µg
same,MLC,"S. aureus Tc^r (RN4250); Tc^r RN4250, kills 99.9%",8 µg
same,MIC,[5]; 2nd column,>200 µg
same,MIC,S. aureus Tc^s (RN450),0.5 ± 0.25 µg
same,MLC,S. aureus Tc^s (RN450),6 ± 2 µg
same,MIC,[6]; 1st column,3 ± 1 µg
same,MIC,[6]; 2nd column,20 ± 0.26 µg
6-deoxy-13-(cyclopentyl mercapto) tetracycline,MIC,[2]; 1st column,20 µg
same,MIC,[2]; 2nd column,60 µg
same,MIC,[7]; 1st column,60 ± 40 µg
same,MIC,[7]; 2nd column,100 ± 60 µg
same,MIC,[3]; 1st column,40 ± 0.26 µg
same,MIC,[3]; 2nd column,60 µg
same,synergistic activity with tetracycline,E. faecalis (Tet M),"little, if any synergistic activity"
same,MIC,[4]; 1st column,1 ± 0.6 µg
same,MLC,S. aureus Tc^r (RN4250); resistant S. aureus,6 ± 2 µg/mL
same,MIC,[5]; 1st column,3 ± 1 µg
same,MIC,S. aureus Tc^s (RN450),1 µg
same,MLC,S. aureus Tc^s (RN450),5 µg
same,MIC,[6]; 1st column,1 ± 0.26 µg
same,MIC,[6]; 2nd column,10 ± 4 µg
